Reference: US20210106550A1, “COMPOSITIONS FOR PREVENTING OR TREATING COGNITIVE IMPAIRMENT-RELATED DISEASE COMPRISING MUMEFURAL” (KOREA INSTITUTE OF ORIENTAL MEDICINE, priority 2018, published 2021)

Experiments:
dementia-mimic rats = assay: water maze test in dementia-mimic animal model; type: in vivo, Wistar rats
Procedure: (§1) Specifically, 12-week-old Wister rats (350 g to 380 g) were used for the experiments. After obtaining the experimental animals, appearance was visually inspected and then normal symptoms were observed during a 7-day acclimation period. Healthy animals were selected therefrom and assigned to groups by a random method according to body weight ranges, and then experiments were performed. During the acclimation and experiment, a constant breeding environment was maintained under the conditions of a temperature of 23±3° C., a relative humidity of 50±10%, a ventilation frequency of 12 times to 16 times per hour, a 12-hour light-dark cycle (light on at 7:00, light off at 19:00), and an intensity of illumination of 150 Lx to 300 Lx. Experiments were performed using sterilized instruments, and the rats were allowed free access to tap water and a solid feed (PMI nutrition, USA) for 24 hours.
(§2) In order to construct a vascular dementia-mimic animal model, chronic cerebral hypoperfusion was induced by bilateral common carotid artery occlusion (2VO, hereinafter referred to as “brain damage (BCCA0)”) (Wakita et al., 1994). The rats were anesthetized with 4% isoflurane, and the anesthesia was maintained by 1.5% isoflurane during the operation. The central neck was incised to expose the bilateral common carotid artery carefully so as not to cause damage to the vagal nerve. Ligation was performed twice with No. 3 silk, thereby constructing an animal model in which dementia was induced by brain damage.
(§3) After 21 days from the BCCA0 operation, the Wistar rats were orally administered with mumefural for 42 days. The rats were divided into 5 groups listed in Table 1 below, and controls were orally administered with saline. Different concentrations of mumefural were set in the oral administration as low concentration (20 mg/kg), medium concentration (40 mg/kg), and high concentration (80 mg/kg).
In order to investigate effects of mumefural on enhancing spatial memory in the dementia-mimic animal model, a water maze test was performed after administering mumefural in the same manner as in Example 1 above.
Specifically, a circular water tank (diameter: 180 cm, height: 58 cm) was filled with water at a temperature of 26±2° C. up to 2 cm above a marked platform, screen walls were set up on all sides of the water tank to prevent light from coming through, and a pigment was added thereto to make the water opaque. In addition, labels were attached to given positions (diameter: 12 cm, height: 33.5 cm) of the screen walls to give clues for the rats to search for the marked platform. Spatial memory training was performed […] for 8 days every morning (from 9:00 a.m.) once per day 8 times in total. Time taken for the rats to find the hidden platform and escape latency thereof were measured and regarded as markers of memory, and reduced time of every group was compared every day. Thereafter, a water maze test was performed after 8 days from the training. In this test, time taken for the rats to first find the hidden platform was measured and used as a marker of memory. That is, a shorter time is regarded as more improved recognition ability.

AChE [1] = assay: enzyme-linked immunosorbent assay of AChE activity in basal forebrain; type: in vivo; details: compared with the negative control; FIG. 6
Procedure: as §1
(§4) In order to construct a vascular dementia-mimic animal model, chronic cerebral hypoperfusion was induced by bilateral common carotid artery occlusion (2VO, hereinafter referred to as “brain damage (BCCA0)”) (Wakita et al., 1994). The rats were anesthetized with 4% isoflurane, and the anesthesia was maintained by 1.5% isoflurane during the operation. The central neck was incised to expose the bilateral common carotid artery carefully so as not to cause damage to the vagal nerve. […]

[2] = system: ChAT, VAChT, and AChE proteins; assay: western blot of ChAT, VAChT, and AChE proteins in hippocampus; type: in vivo; details: compared with the negative control; FIGS. 7A, 7B
Procedure: as §1, §2, §3

AChE [3] = assay: enzyme-linked immunosorbent assay of AChE activity in hippocampus; type: in vivo; details: compared with the negative control; FIG. 8
Procedure: as §1, §4

phospho-CAMKII protein = assay: western blot of phospho-CAMKII in hippocampus; type: in vivo, Wistar rats; details: compared with the negative control; FIGS. 13A, 13B
Procedure: Specifically, 12-week-old Wister rats (350 g to 380 g) were used for the experiments. After obtaining the experimental animals, appearance was visually inspected and then normal symptoms were observed during a 7-day acclimation period. Healthy animals were selected therefrom and assigned to groups by a random method according to body weight ranges, and then experiments were performed. […]
In order to investigate effects of mumefural on normalization of damaged hippocampus in the dementia-mimic animal model, mumefural was administered in the same manner as in Example 1, and then expression levels of neurotransmitter secretion substances in the hippocampus were analyzed.
Specifically, the hippocampus was excised from each of the dementia-mimic rats after administration of mumefural was completed, and proteins were extracted therefrom. Expression levels of phospho-Ca^2+/calmodulin-dependent protein kinase II (phospho-CAMKII) and Ca^2+/calmodulin-dependent protein kinase II (CAMKII) proteins were analyzed by western blotting. β-Actin was used as a loading control.

[4] = system: BDNF and phospho-CREB proteins; assay: western blot of memory-related factors in hippocampus; type: in vivo, Wistar rats
Procedure: as §1, §2, §3
In order to investigate effects of mumefural on normalization of damaged hippocampus in the dementia-mimic animal model, mumefural was administered in the same manner as in Example 1, and then expression levels of memory-related factors in the hippocampus were analyzed.
Specifically, the hippocampus was excised from each of the dementia-mimic rats after administration of mumefural was completed, and proteins were extracted therefrom. Expression levels of brain-derived neurotrophic factor (BDNF), phospho-cAMP response element-binding protein (phospho-CREB), and cAMP response element-binding protein (CREB) were analyzed by western blotting. β-Actin was used as a loading control.

microglia = assay: immunohistostaining of lba-1 (microglia) in hippocampus and white matter; type: in vivo, Wistar rats; details: compared with the negative control
Procedure: as §1, with “hours. […]” for “hours.”
(§5) In order to investigate effects of mumefural on normalization of damaged hippocampus and corpus callosum of white matter in the dementia-mimic animal model, mumefural was administered in the same manner as in Example 1, and then microglia and astrocytes were detected in the hippocampus and white matter to identify gliosis. […]

astrocytes = assay: immunohistostaining of GFAP (astrocytes) in hippocampus and white matter; type: in vivo, Wistar rats
Procedure: as §1, §2
After 21 days from the BCCA0 operation, the Wistar rats were orally administered with mumefural for 42 days. The rats were divided into 5 groups listed in Table 1 below, and controls were orally administered with saline. […]
as §5

[5] = 20 mg/kg, 40 mg/kg, and 80 mg/kg oral, relative to normal control
[6] = compared with the negative control, FIGS. 14A, 14B

O=Cc1ccc(COC(=O)CC(O)(CC(=O)O)C(=O)O)o1 (centres unmarked) [mumefural]
latency to find the hidden platform vs normal control (dementia-mimic rats; BCCAo rats, 20 mg/kg, 40 mg/kg, and 80 mg/kg oral, compared with normal control, FIG. 1): high latency similar to that of the normal control | time to first arrive at the hidden platform vs normal control (dementia-mimic rats; BCCAo rats, 40 mg/kg and 80 mg/kg oral, compared with normal control, FIG. 2): short time similar to that of the normal control | time to first arrive at the hidden platform (dementia-mimic rats; BCCAo rats, oral mumefural 42 days, compared to the negative control, FIG. 2): reduced | latency to find the hidden platform (escape latency) (dementia-mimic rats; BCCAo rats, oral mumefural 42 days, compared with the negative control (saline), FIG. 1): increased | average swim speeds (dementia-mimic rats; among the groups (20, 40, 80 mg/kg, controls), FIG. 3): no difference | activity of AChE in the basal forebrain (AChE [1]): reduced | expression level of AChE protein in the hippocampus [2]: decreased | expression level of ChAT protein in the hippocampus [2]: increased | expression level of VAChT protein in the hippocampus [2]: increased | activity of AChE in the hippocampus (AChE [3]): decreased | expression level of the phospho-CAMKII protein in hippocampus (phospho-CAMKII protein): significantly increased | expression level of BDNF protein vs normal control [4, 5]: higher expression levels than that of the normal control by about three times or more | expression level of phospho-CREB protein vs normal control [4, 5]: higher expression levels than that of the normal control by about three times or more | expression level of BDNF protein in hippocampus [4, 6]: significantly increased | expression level of phospho-CREB protein in hippocampus [4, 6]: significantly increased | numbers of microglia (lba-1 positive cells) in the hippocampus (microglia; FIGS. 15A, 15B): significantly decreased | numbers of microglia (lba-1 positive cells) in the white matter (microglia; FIGS. 15C, 15D): significantly decreased | numbers of astrocytes, effect vs normal control (astrocytes; 20 mg/kg, 40 mg/kg, and 80 mg/kg oral, hippocampus and white matter): effects similar to or superior to those of the normal control | numbers of astrocytes (GFAP positive cells) in the hippocampus (astrocytes; compared with the negative control, FIGS. 16A, 16B): significantly decreased | numbers of astrocytes (GFAP positive cells) in the white matter (astrocytes; compared with the negative control, FIGS. 16C, 16D): significantly decreased
